Read-outs that look alike come from different tables or passages of the source.
Tests used:
[1] = test system: Beet Armyworm (BAW) (Spodoptera exigua); test: Bioassays on Beet Armyworm (BAW), 128-well diet tray assay; assay type: in vivo; settings: 168 h, read-out: BAW Rating (% mortality)
Outline: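 Second-instar larvae (1–5 per well) on artificial diet surface-treated with 50 μg/cm^2 compound applied in 90:10 acetone-water and dried; eight wells per compound. Held 5–7 days at 25° C., 14:10 light-dark. Percent mortality scored per well and averaged over eight wells.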

[2] = test system: Corn Earworm (CEW) (Helicoverpa zea); test: Bioassays on Corn Earworm (CEW), 128-well diet tray assay; assay type: in vivo; settings: 168 h, read-out: CEW Rating (% mortality)
Outline: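 Second-instar larvae (one to five per well) placed on artificial diet treated with 50 μg/cm^2 compound in 90:10 acetone-water, dried; eight wells per compound. Held at 25° C, 14:10 light-dark, five to seven days; percent mortality averaged over wells.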

[3] = 50 μg/cm^2 test compound on artificial diet, second instar larvae, 25° C., five to seven days, average of eight wells

Row | Compound | mortality at 50 µg/cm2 [1, 3] | mortality at 50 µg/cm2 [2, 3] | mortality at 50 µg/cm2 [1] | mortality at 50 µg/cm2 [2]
1 | C=CCNC(=S)NCc1ccc(/C=C/C(c2cc(Cl)c(Cl)c(Cl)c2)C(F)(F)F)cc1Cl (stereo not shown) [CC38] | 50 to 100% | 50 to 100% | – | –
2 | CC(C)(C)OC(=O)NCc1ccc(/C=C/C(c2cc(Cl)c(Cl)c(Cl)c2)C(F)(F)F)cc1Cl (stereo not shown) [CC39] | 0% | 0% | – | –
3 | O=C(NCc1ccc(/C=C/C(c2cc(Cl)c(Cl)c(Cl)c2)C(F)(F)F)cc1Cl)Oc1ccccc1Cl (stereo not shown) [CC40] | – | – | 0% | 50 to 100%
4 | COC(=O)C(=O)NCc1ccc(/C=C/C(c2cc(Cl)c(Cl)c(Cl)c2)C(F)(F)F)cc1Cl (stereo not shown) [CC41, (E)-methyl 2-((2-chloro-4-(4,4,4-trifluoro-3-(3,4,5-trichlorophenyl)but-1-en-1-yl)benzyl)amino)-2-oxoacetate] | 0% | 0% | – | –
5 | O=C(NCc1ccc(/C=C/C(c2cc(Cl)c(Cl)c(Cl)c2)C(F)(F)F)cc1Cl)C(=O)NCC(F)(F)F (stereo not shown) [CC42, (E)-N^1-(2-chloro-4-(4,4,4-trifluoro-3-(3,4,5-trichlorophenyl)but-1-en-1-yl)benzyl)-N^2-(2,2,2-trifluoroethyl)oxalamide] | 0% | 0% | – | –
6 | FC(F)(F)C(/C=C/c1ccc(CNc2ccccn2)c(Cl)c1)c1cc(Cl)c(Cl)c(Cl)c1 (stereo not shown) [CC43, (E)-N-(2-chloro-4-(4,4,4-trifluoro-3-(3,4,5-trichlorophenyl)but-1-en-1-yl)benzyl)pyridin-2-amine] | 50 to 100% | 0 to 50% | – | –
7 | O=C(CC(F)(F)F)NCc1ncc(/C=C/C(c2cc(Cl)c(Cl)c(Cl)c2)C(F)(F)F)cc1Cl (stereo not shown) [CC44, (E)-N-((3-chloro-5-(4,4,4-trifluoro-3-(3,4,5-trichlorophenyl)-but-1-en-1-yl)pyridin-2-yl)methyl)-3,3,3-trifluoropropanamide] | 50 to 100% | 50 to 100% | – | –
8 | O=C(NCc1ncc(/C=C/C(c2cc(Cl)c(Cl)c(Cl)c2)C(F)(F)F)cc1Cl)C1CC1 (stereo not shown) [CC45] | 50 to 100% | 50 to 100% | – | –
9 | O=C(CC(F)(F)F)NCc1ccc(/C=C/C(c2cc(Cl)c(Cl)c(Cl)c2)C(F)(F)F)c2ccccc12 (stereo not shown) [CC46, (E)-3,3,3-trifluoro-N-((4-(4,4,4-trifluoro-3-(3,4,5-trichlorophenyl)but-1-en-1-yl)naphthalen-1-yl)methyl)propanamide] | 0% | 50 to 100% | – | –
10 | O=C(NCc1ccc(/C=C/C(c2cc(Cl)cc(Cl)c2)C(F)(F)F)c2ccccc12)C1CC1 (stereo not shown) [CC47] | 0% | 0% | – | –
11 | O=C(NCc1ccc(/C=C/C(c2cc(Cl)c(Cl)c(Cl)c2)C(F)(F)F)c2ccccc12)C1CC1 (stereo not shown) [CC48] | 0% | 0% | – | –
12 | CCNC(=O)NCc1ccc(/C=C/C(c2cc(Cl)c(Cl)c(Cl)c2)C(F)(F)F)c2ccccc12 (stereo not shown) [CC49, (E)-1-ethyl-3-((4-(4,4,4-trifluoro-3-(3,4,5-trichlorophenyl)but-1-en-1-yl)naphthalen-1-yl)methyl)urea] | 0% | 0% | – | –
13 | O=C(NNc1ccc(/C=C/C(c2cc(Cl)c(Cl)c(Cl)c2)C(F)(F)F)cc1)C1CC1 (stereo not shown) [CC50, (E)-N′-(4-(4,4,4-trifluoro-3-(3,4,5-trichlorophenyl)but-1-en-1-yl)phenyl)cyclopropanecarbohydrazide] | 50 to 100% | 50 to 100% | – | –
14 | O=C(CC(F)(F)F)NNc1ccc(/C=C/C(c2cc(Cl)c(Cl)c(Cl)c2)C(F)(F)F)cc1 (stereo not shown) [CC51] | 50 to 100% | 50 to 100% | – | –
15 | O=C(NOc1ccc(/C=C/C(c2cc(Cl)c(Cl)c(Cl)c2)C(F)(F)F)cc1)C1CC1 (stereo not shown) [CC52, (E)-N-(4-(4,4,4-trifluoro-3-(3,4,5-trichlorophenyl)but-1-en-1-yl)phenoxy)cyclopropanecarboxamide] | 50 to 100% | 0% | – | –
16 | O=C(CC(F)(F)F)NOc1ccc(/C=C/C(c2cc(Cl)c(Cl)c(Cl)c2)C(F)(F)F)cc1 (stereo not shown) [CC53] | 0% | 0% | – | –
17 | O=C(CC(F)(F)F)NCc1ccc(/C=C\C(c2cc(Cl)c(Cl)c(Cl)c2)C(F)(F)F)cc1 (stereo not shown) [CC54, (Z)-3,3,3-trifluoro-N-(4-(4,4,4-trifluoro-3-(3,4,5-trichlorophenyl)but-1-en-1-yl)benzyl)propanamide] | 50 to 100% | 50 to 100% | – | –
18 | FC(F)(F)C(/C=C/c1ccc(-n2cncn2)cc1)c1cc(Cl)cc(Cl)c1 (stereo not shown) [DC1, (E)-1-(4-(3-(3,5-dichlorophenyl)-4,4,4-trifluorobut-1-en-1-yl)phenyl)-1H-1,2,4-triazole] | 50 to 100% | 50 to 100% | – | –
19 | FC(F)(F)C(/C=C/c1ccc(-n2cncn2)cc1)c1cccc(Cl)c1 (stereo not shown) [DC2] | 0% | 0% | – | –
20 | FC(F)(F)C(/C=C/c1ccc(-n2cncn2)cc1)c1ccccc1 (stereo not shown) [DC3] | 0 to 50% | 0% | – | –
21 | FC(F)(F)C(/C=C/c1ccc(-n2cncn2)cc1)c1ccc(Cl)cc1 (stereo not shown) [DC4] | 50 to 100% | 0% | – | –
22 | Cc1ccc(C(/C=C/c2ccc(-n3cncn3)cc2)C(F)(F)F)cc1 (stereo not shown) [DC5] | 0% | 0% | – | –
23 | COc1ccc(C(/C=C/c2ccc(-n3cncn3)cc2)C(F)(F)F)cc1 (stereo not shown) [DC6] | 0% | 0% | – | –
24 | Fc1ccc(C(/C=C/c2ccc(-n3cncn3)cc2)C(F)(F)F)cc1 (stereo not shown) [DC7] | 50 to 100% | 0% | – | –
25 | Fc1cc(F)cc(C(/C=C/c2ccc(-n3cncn3)cc2)C(F)(F)F)c1 (stereo not shown) [DC8] | 50 to 100% | 0% | – | –

Row | Compound | mortality at 50 µg/cm2 [1, 3] | mortality at 50 µg/cm2 [2, 3] | mortality at 50 µg/cm2 [1] | mortality at 50 µg/cm2 [2]
26 | Fc1cccc(C(/C=C/c2ccc(-n3cncn3)cc2)C(F)(F)F)c1 (stereo not shown) [DC9] | 0% | 0% | – | –
27 | Fc1ccccc1C(/C=C/c1ccc(-n2cncn2)cc1)C(F)(F)F (stereo not shown) [DC10] | 0% | 0% | – | –
28 | Cc1cc(C)cc(C(/C=C/c2ccc(-n3cncn3)cc2)C(F)(F)F)c1 (stereo not shown) [DC11] | 50 to 100% | 0% | – | –
29 | FC(F)(F)C(/C=C/c1ccc(-n2cncn2)cc1)c1ccc(Cl)c(Cl)c1 (stereo not shown) [DC12] | 50 to 100% | 50 to 100% | – | –
30 | FC(F)(F)C(/C=C/c1ccc(-n2cncn2)cc1)c1ccc(Cl)cc1Cl (stereo not shown) [DC13] | 50 to 100% | 50 to 100% | – | –
31 | FC(F)(F)C(/C=C/c1ccc(-n2cncn2)cc1)c1cccc(Cl)c1Cl (stereo not shown) [DC14] | 0% | 0% | – | –
32 | FC(F)(F)C(/C=C/c1ccc(-n2cncn2)cc1)c1cc(Cl)ccc1Cl (stereo not shown) [DC15] | 0% | 0% | – | –
33 | FC(F)(F)c1cc(C(/C=C/c2ccc(-n3cncn3)cc2)C(F)(F)F)cc(C(F)(F)F)c1 (stereo not shown) [DC16] | 50 to 100% | 50 to 100% | – | –
34 | FC(F)(F)C(/C=C/c1ccc(-n2cncn2)cc1)c1cc(Cl)cc(Cl)c1Cl (stereo not shown) [DC17] | 50 to 100% | 50 to 100% | – | –
35 | FC(F)(F)C(/C=C/c1ccc(-n2cncn2)cc1)c1cc(Cl)c(Cl)c(Cl)c1 (stereo not shown) [DC18] | 50 to 100% | 50 to 100% | – | –
36 | FC(F)(F)c1cc(Cl)cc(C(/C=C/c2ccc(-n3cncn3)cc2)C(F)(F)F)c1 (stereo not shown) [DC19] | 50 to 100% | 50 to 100% | – | –
37 | COc1c(Cl)cc(C(/C=C/c2ccc(-n3cncn3)cc2)C(F)(F)F)cc1Cl (stereo not shown) [DC20] | 50 to 100% | 0% | – | –
38 | Cc1ncn(-c2ccc(/C=C/C(c3cc(Cl)cc(Cl)c3)C(F)(F)F)cc2)n1 (stereo not shown) [DC21] | 0% | 0% | – | –
39 | O=[N+]([O-])c1ncn(-c2ccc(/C=C/C(c3cc(Cl)cc(Cl)c3)C(F)(F)F)cc2)n1 (stereo not shown) [DC22] | 0% | 0% | – | –
40 | Cc1ncnn1-c1ccc(/C=C/C(c2cc(Cl)cc(Cl)c2)C(F)(F)F)cc1 (stereo not shown) [DC23] | 0% | 50 to 100% | – | –
41 | CC(=O)c1ncnn1-c1ccc(/C=C/C(c2cc(Cl)cc(Cl)c2)C(F)(F)F)cc1 (stereo not shown) [DC24] | 0% | 0% | – | –
42 | CSc1ncnn1-c1ccc(/C=C/C(c2cc(Cl)cc(Cl)c2)C(F)(F)F)cc1 (stereo not shown) [DC25] | 0% | 0% | – | –
43 | O=C(c1ncnn1-c1ccc(/C=C/C(c2cc(Cl)cc(Cl)c2)C(F)(F)F)cc1)C1CC1 (stereo not shown) [DC26] | 0% | 0% | – | –
44 | CS(=O)(=O)c1ncnn1-c1ccc(/C=C/C(c2cc(Cl)cc(Cl)c2)C(F)(F)F)cc1 (stereo not shown) [DC27] | 0% | 0% | – | –
45 | N#Cc1cc(/C=C/C(c2ccc(Cl)c(Cl)c2)C(F)(F)F)ccc1-n1cncn1 (stereo not shown) [DC28] | 50 to 100% | 50 to 100% | – | –
46 | N#Cc1cc(/C=C/C(c2cc(Cl)cc(Cl)c2)C(F)(F)F)ccc1-n1cncn1 (stereo not shown) [DC29] | 50 to 100% | 50 to 100% | – | –
47 | N#Cc1cc(/C=C/C(c2cc(C(F)(F)F)cc(C(F)(F)F)c2)C(F)(F)F)ccc1-n1cncn1 (stereo not shown) [DC30] | 50 to 100% | 50 to 100% | – | –
48 | N#Cc1cc(/C=C/C(c2cc(Cl)c(Cl)c(Cl)c2)C(F)(F)F)ccc1-n1cncn1 (stereo not shown) [DC31] | 50 to 100% | 50 to 100% | – | –
49 | N#Cc1cc(/C=C/C(c2cccc(Cl)c2)C(F)(F)F)ccc1-n1cncn1 (stereo not shown) [DC32] | 0% | 0% | – | –
50 | N#Cc1cc(/C=C/C(c2cc(Cl)cc(C(F)(F)F)c2)C(F)(F)F)ccc1-n1cncn1 (stereo not shown) [DC33] | 50 to 100% | 50 to 100% | – | –
